Experimental data from article PMC10659437 (bioRxiv, 2023).

What was measured:
Format in all cases: cell-based
[1] = target: T1, human trace amine-associated receptor 1 (hTAAR1, hTA1) (Homo sapiens, UniProt Q96RJ0); assay: cryo-EM structure of the hTA1-Gs complex
T1 sequence (Q96RJ0 1-339): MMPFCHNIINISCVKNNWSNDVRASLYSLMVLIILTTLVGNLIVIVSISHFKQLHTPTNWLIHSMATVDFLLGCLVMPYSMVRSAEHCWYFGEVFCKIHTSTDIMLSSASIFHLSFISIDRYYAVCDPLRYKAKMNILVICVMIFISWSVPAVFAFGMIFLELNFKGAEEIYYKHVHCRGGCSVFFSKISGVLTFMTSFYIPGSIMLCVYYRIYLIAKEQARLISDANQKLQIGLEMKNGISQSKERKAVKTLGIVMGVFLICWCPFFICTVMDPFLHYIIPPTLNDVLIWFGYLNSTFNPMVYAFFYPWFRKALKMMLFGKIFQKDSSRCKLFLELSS

[2] = target: T1, human trace amine-associated receptor 1 (hTAAR1, hTA1); assay: GloSensor cAMP accumulation, hTA1-transfected HEK293T cells
[3] = target: T1, human trace amine-associated receptor 1 (hTAAR1, hTA1); assay: GloSensor cAMP accumulation, hTA1-transfected HEK293T cells, with pocket mutants

`CC[C@@H](C[C@H]1COC(N)=N1)c1ccccc1` [Ro5256390] showed an EC50 [1] of about 5 nM.

Work on `Cc1c(F)cccc1[C@H]1COC(N)=N1` [Ro5263397] yielded an EC50 [2] of 1.48 nM.

In the case of `CN1CC2c3ccccc3Oc3ccc(Cl)cc3C2C1` (stereo not shown) [asenapine], the EC50 [3] is reported as 6.56 ± 0.01 pEC50.

Molecule `NCCc1ccc(O)cc1` [tyramine] has an EC50 [2] of 6.38 ± 0.04 pEC50.
